Results from PMC9962741, “In Silico and In Vitro Screening of Serine Racemase Agonist and In Vivo Efficacy on Alzheimer’s Disease Drosophila melanogaster” (Pharmaceuticals, 2023).

Target: T1, serine racemase (SRR) (Homo sapiens, UniProt Q9GZT4)
T1 construct: SRR Enzyme Human Recombinant (ENZ-232, ProSpec)
T1 sequence (Q9GZT4 1-340): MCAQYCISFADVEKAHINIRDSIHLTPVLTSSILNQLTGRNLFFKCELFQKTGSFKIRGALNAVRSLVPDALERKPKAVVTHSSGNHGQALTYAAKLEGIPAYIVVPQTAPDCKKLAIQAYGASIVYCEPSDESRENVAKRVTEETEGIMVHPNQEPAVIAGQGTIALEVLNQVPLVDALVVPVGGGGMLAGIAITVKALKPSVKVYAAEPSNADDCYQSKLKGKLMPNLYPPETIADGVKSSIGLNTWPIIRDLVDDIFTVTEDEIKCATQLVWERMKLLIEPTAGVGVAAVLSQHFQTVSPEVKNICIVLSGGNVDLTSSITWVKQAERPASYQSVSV
Assay: recombinant SRR racemization of L-serine, D-serine read by coupled DAAO/HRP luminol luminescence (activation)
Format: biochemical

NC(CSc1nc2ccccn2c1[N+](=O)[O-])C(=O)O (stereo not shown) [NSC294149, 2-amino-3-(3-nitroimidazo[1,2-a]pyridin-2-yl)sulfanylpropanoic acid]
% increase of SRR activity: 200 % increase of SRR activity
